Laboratory results from US20110207793A1, “1-AMINOCYCLOHEXANE DERIVATIVES FOR THE TREATMENT OF SLEEP DISORDERS” (priority 2008, published 2011).

Legend:
[1] = target: alpha9/alpha10 nicotinic receptor (Rattus norvegicus, UniProt P43144+Q9JLB5); conditions: Plazas, et al., Eur J Pharmacol., 2007; cited from earlier work
[2] = test system: subjects with subjective tinnitus of at least moderate severity; test: Double-blind placebo-controlled pilot trial of neramexane in tinnitus: TBF-12; assay type: in vivo, human; conditions: final daily doses of 50 or 75 mg, after 16-week double-blind treatment (Visit 6); distinct from placebo or low-dose (25 mg)
Protocol: (§1) The objective of this pilot project was to conduct a clinical trial to assess the efficacy of neramexane as a treatment for tinnitus. The primary objective of this study was to compare the efficacy, tolerability and safety of neramexane mesylate at three different dosages (25, 50 or 75 mg/d) with placebo in subjects with subjective tinnitus of at least moderate severity.
(§2) In a double-blind, multicenter, randomized, placebo-controlled, parallel-group study, the efficacy of neramexane in subjects suffering from tinnitus of at least moderate severity was assessed. Approximately 100 patients, who fulfilled particular inclusion criteria and met none of particular exclusion criteria, were randomized to each of four double-blind treatment groups (neramexane mesylate 25, 50, 75 mg/d or placebo), resulting in approximately 400 patients in total.
The double-blind, 16-week treatment period consisted of a 4-week uptitration period and a 12-week fixed-dose treatment period at unchanged maintenance b.i.d. dosing. In case of poor tolerability, however, the investigator could consider a dose reduction by 25 mg/d (or placebo, respectively). […]
Visit 1 (screening): After signing the consent form, the subject underwent a physical examination and clinical laboratory testing. Patient eligibility for the study was evaluated via a check of inclusion/exclusion criteria. […]

[3] = test system: subjects with subjective tinnitus of at least moderate severity; test: Double-blind placebo-controlled pilot trial of neramexane in tinnitus: question 12/5 (sleep item) of the structured tinnitus interview; assay type: in vivo, human; conditions: for TI Sleep item 12/5: Prevented (%) / TI Sleep item 12/5: Prevented n / TI Sleep item 12/5: affected (%) / TI Sleep item 12/5: affected n / TI Sleep item 12/5: no effect (%) / TI Sleep item 12/5: no effect n: ITT-OC
Protocol: as §1, §2
The double-blind, 16-week treatment period consisted of a 4-week uptitration period and a 12-week fixed-dose treatment period at unchanged maintenance b.i.d. dosing. In case of poor tolerability, however, the investigator could consider a dose reduction by 25 mg/d (or placebo, respectively). After the treatment phase, there was a 4-week follow-up period with no active treatment and concomitant therapy restrictions. In total, this study involved seven study visits: screening, baseline, and at the end of weeks 4, 8, 12, 16, and 20.
Visit 2 (baseline): The subject was asked about adverse events and changes in concomitant medication/disease, which events/changes were documented. The subject was evaluated for study eligibility based on a review of the inclusion/exclusion criteria. Trial procedures as well as allowed and forbidden concomitant medications were reviewed with the subject. An initial Tinnitus Interview was conducted. The subject also completed a TBF-12, HADS-D Questionnaire and GÜF Questionnaire (if applicable). The subject was enrolled in the study and study medication (placebo or neramexane) was dispensed as described below.
Visit 6 (Week 16, end of treatment). This visit occurred at the end of the 12-week fixed-dose double-blind treatment period. The subject was asked about adverse events and changes in concomitant medication/disease, which changes are documented. A clinical laboratory evaluation was performed. A follow-up Tinnitus Interview was conducted, and the subject completed a TBF-12, HADS-D Questionnaire and GÜF Questionnaire (if applicable). Pure-tone audiometry (air conduction) was also conducted.
Visit 7 (Week 20): This visit occurred at the end of the 4-week follow-up period after the last study medication dose. Review of concomitant medications as well as the occurrence of adverse events since the last visit is conducted with subject. A follow-up Tinnitus Interview was conducted, and the subject completed a TBF-12, HADS-D Questionnaire and GÜF Questionnaire (if applicable).
Neramexane mesylate immediate release tablets (12.5 mg and 25 mg) and matching placebo tablets were administered as film coated tablets.
Study medication was dispensed at Visit 2 (baseline, day, 0). Each patient received one blister box containing 5 blister cards (including one reserve blister) of double-blind study medication (i.e., 32 tablets). Subjects were instructed to take 2 tablets twice daily (4 tablets/d), beginning the day after dispensing of the study medication, until they returned for their next study visit (Visit 3). For those subjects assigned to receive active medication, some placebo tablets were incorporated into the dosing regimen to ensure blinding during the uptitration period. The target fixed-maintenance dose of 25, 50, or 75 mg neramexane mesylate/d was administered starting with the fifth week of double-blind treatment and was continued throughout the study. […]

[4] = Follow-Up (Change from Baseline), 25 mg/d, N = 100
[5] = Follow-Up (Change from Baseline), 50 mg/d, N = 95
[6] = Follow-Up (Change from Baseline), 75 mg/d, N = 89
[7] = Week 16 Visit (Change from Baseline), 25 mg/d, N = 89
[8] = Week 16 Visit (Change from Baseline), 50 mg/d, N = 80
[9] = Week 16 Visit (Change from Baseline), 75 mg/d, N = 64

Sequence of alpha9/alpha10 nicotinic receptor (P43144 26-479): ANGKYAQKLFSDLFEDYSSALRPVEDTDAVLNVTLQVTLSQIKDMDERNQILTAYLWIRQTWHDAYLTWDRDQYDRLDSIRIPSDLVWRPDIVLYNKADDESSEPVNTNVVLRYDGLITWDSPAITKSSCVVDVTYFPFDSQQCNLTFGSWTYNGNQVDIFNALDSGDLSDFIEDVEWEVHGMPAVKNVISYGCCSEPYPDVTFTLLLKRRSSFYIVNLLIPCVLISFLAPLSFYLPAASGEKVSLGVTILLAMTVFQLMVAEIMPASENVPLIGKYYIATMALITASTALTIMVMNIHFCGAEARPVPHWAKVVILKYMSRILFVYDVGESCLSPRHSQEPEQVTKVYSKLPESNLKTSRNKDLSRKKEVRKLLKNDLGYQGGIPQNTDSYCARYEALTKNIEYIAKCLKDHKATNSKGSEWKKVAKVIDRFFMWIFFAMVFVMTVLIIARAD
Sequence of alpha9/alpha10 nicotinic receptor (Q9JLB5 25-447): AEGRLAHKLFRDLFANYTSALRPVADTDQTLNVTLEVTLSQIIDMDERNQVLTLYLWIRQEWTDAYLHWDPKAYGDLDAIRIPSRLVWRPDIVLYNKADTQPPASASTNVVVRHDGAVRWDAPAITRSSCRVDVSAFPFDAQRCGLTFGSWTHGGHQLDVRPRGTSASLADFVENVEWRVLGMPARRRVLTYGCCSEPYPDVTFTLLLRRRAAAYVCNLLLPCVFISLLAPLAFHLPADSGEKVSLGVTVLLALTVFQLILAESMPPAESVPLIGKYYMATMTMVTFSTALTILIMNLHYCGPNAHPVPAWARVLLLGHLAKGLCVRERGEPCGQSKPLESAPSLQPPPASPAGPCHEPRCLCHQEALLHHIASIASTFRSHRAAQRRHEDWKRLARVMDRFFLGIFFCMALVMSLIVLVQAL

Question: Which results are given for CC1(C)CC(C)(C)CC(C)(N)C1 [Neramexane, 1-amino-1,3,3,5,5-pentamethylcyclohexane]?
Answer: activity at alpha9/alpha10 nicotinic receptor [1]: activity as an alpha9/alpha10 nicotinic receptor antagonist; improvement of tinnitus as measured by the TBF-12 [2]: clear improvement of their tinnitus; TI Sleep item 12/5: Prevented (%) ([3]; Baseline, 25 mg/d, N = 106): 12.3%; TI Sleep item 12/5: Prevented n ([3]; Baseline, 25 mg/d, N = 106): 13; TI Sleep item 12/5: affected (%) ([3]; Baseline, 25 mg/d, N = 106): 64.2%; TI Sleep item 12/5: affected n ([3]; Baseline, 25 mg/d, N = 106): 68; TI Sleep item 12/5: no effect (%) ([3]; Baseline, 25 mg/d, N = 106): 23.6%; TI Sleep item 12/5: no effect n ([3]; Baseline, 25 mg/d, N = 106): 25; TI Sleep item 12/5: Prevented (%) ([3]; Baseline, 50 mg/d, N = 106): 6.6%; TI Sleep item 12/5: Prevented n ([3]; Baseline, 50 mg/d, N = 106): 7; TI Sleep item 12/5: affected (%) ([3]; Baseline, 50 mg/d, N = 106): 66.0%; TI Sleep item 12/5: affected n ([3]; Baseline, 50 mg/d, N = 106): 70; TI Sleep item 12/5: no effect (%) ([3]; Baseline, 50 mg/d, N = 106): 27.4%; TI Sleep item 12/5: no effect n ([3]; Baseline, 50 mg/d, N = 106): 29; TI Sleep item 12/5: Prevented (%) ([3]; Baseline, 75 mg/d, N = 99): 8.1%; TI Sleep item 12/5: Prevented n ([3]; Baseline, 75 mg/d, N = 99): 8; TI Sleep item 12/5: affected (%) ([3]; Baseline, 75 mg/d, N = 99): 68.7%; TI Sleep item 12/5: affected n ([3]; Baseline, 75 mg/d, N = 99): 68; TI Sleep item 12/5: no effect (%) ([3]; Baseline, 75 mg/d, N = 99): 23.2%; TI Sleep item 12/5: no effect n ([3]; Baseline, 75 mg/d, N = 99): 23; TI Sleep item 12/5: Prevented (%) [3, 4]: 3.0%; TI Sleep item 12/5: Prevented n [3, 4]: 3; TI Sleep item 12/5: affected (%) [3, 4]: 65.0%; TI Sleep item 12/5: affected n [3, 4]: 65; TI Sleep item 12/5: no effect (%) [3, 4]: 32.0%; TI Sleep item 12/5: no effect n [3, 4]: 32; TI Sleep item 12/5: Prevented (%) [3, 5]: 1.1%; TI Sleep item 12/5: Prevented n [3, 5]: 1; TI Sleep item 12/5: affected (%) [3, 5]: 57.9%; TI Sleep item 12/5: affected n [3, 5]: 55; TI Sleep item 12/5: no effect (%) [3, 5]: 41.1%; TI Sleep item 12/5: no effect n [3, 5]: 39; TI Sleep item 12/5: Prevented (%) [3, 6]: 3.4%; TI Sleep item 12/5: Prevented n [3, 6]: 3; TI Sleep item 12/5: affected (%) [3, 6]: 57.3%; TI Sleep item 12/5: affected n [3, 6]: 51; TI Sleep item 12/5: no effect (%) [3, 6]: 39.3%; TI Sleep item 12/5: no effect n [3, 6]: 35; TI Sleep item 12/5: Prevented (%) [3, 7]: 2.2%; TI Sleep item 12/5: Prevented n [3, 7]: 2; TI Sleep item 12/5: affected (%) [3, 7]: 65.2%; TI Sleep item 12/5: affected n [3, 7]: 58; TI Sleep item 12/5: no effect (%) [3, 7]: 32.6%; TI Sleep item 12/5: no effect n [3, 7]: 29; TI Sleep item 12/5: Prevented (%) [3, 8]: 1.3%; TI Sleep item 12/5: Prevented n [3, 8]: 1; TI Sleep item 12/5: affected (%) [3, 8]: 48.8%; TI Sleep item 12/5: affected n [3, 8]: 39; TI Sleep item 12/5: no effect (%) [3, 8]: 50.0%; TI Sleep item 12/5: no effect n [3, 8]: 40; TI Sleep item 12/5: Prevented (%) [3, 9]: 6.3%; TI Sleep item 12/5: Prevented n [3, 9]: 4; TI Sleep item 12/5: affected (%) [3, 9]: 50.0%; TI Sleep item 12/5: affected n [3, 9]: 32; TI Sleep item 12/5: no effect (%) [3, 9]: 43.8%; TI Sleep item 12/5: no effect n [3, 9]: 28; improvement of sleep, question 12/5 of the structured tinnitus interview ([3]; final daily doses of 50 or 75 mg, after 16 weeks of double-blind treatment, distinct from placebo or low-dose (25 mg)): clear improvement of their sleep
